For data set [1], the system named is macrophages. Briefly: Trypan blue exclusion test on macrophages. It counts as cell-based. The conditions noted are these: trypan blue analysis, FIG. 2. The method, then: (§1) Mononuclear cells (MNCs) were separated from the peripheral blood of healthy donors obtained with written consent by use of Ficoll-Hypaque density centrifugation, followed by positive selection with magnetic anti-CD14 microbeads.
(§2) The isolated CD14^+ cells were cultivated in Minimum Essential Medium (MEM medium) supplemented with 10% fetal bovine serum (FBS), 100 ng/ml granulocyte-macrophage colony-stimulating factor (GM-CSF, Gentaur), and 50 ng/ml interleukin-4 (IL-4, R&D), and kept in an environment of 37° C. with 5% CO2/95% air.
(§3) To evaluate the effects of the present compound on dendritic cells, the CD14^+ cells were respectively treated with 10 μM of test compound (i.e., Mib-5, Mib-6, Mib-7, Mib-8, Mib-9, and Mib-10) on day 1. Then, on day 3, the cultured medium in each well was replenished by adding half the volume of the cultured medium containing the same treatment as indicated above. Then, on day 6, a cytokine cocktail containing IL-1, IL-6, and tumor necrosis factor-α (TNF-α) was added to induce maturation. On day 7, the differentiated dendritic cells were collected and subjected to further assays, including viability assay, morphology observation, and cell marker staining.
(§4) As to the effects of the present compound on macrophages, the CD14^+ cells were cultivated and treated as indicated above except the addition of cytokine cocktail on day 6. The macrophages were collected on day 6 and subjected to further assays, including viability assay, trypan blue exclusion test, morphology observation, cell marker staining, and phagocytotic activity analysis.
The dye exclusion test is used to determine the number of viable cells present in a cell suspension. […] In this test, the cells were first treated with a test compound (i.e., Mib-5, 6, 7, 8, 9 or 10) for a certain period of time (e.g., 72 hours), then the cells were harvested and re-suspended in suitable buffer solution. The cell suspension was then mixed with trypan blue dye and then visually examined to determine whether cells had taken up or excluded the dye. A viable cell will have a clear cytoplasm, whereas a nonviable cell will have a blue cytoplasm. The concentration required to reduce viability by 50% (IC50) after 72 hours was extrapolated from the dose-response curves by different concentrations of the test compound using a second-order polynomial regression model and analyzing with SigmaPlot Software (Systat Software Inc., San Jose, Calif.).

For data set [2], the system named is skin allograft, C57BL/6 donors, BALB/c recipients. Briefly: Skin allo-transplantation rejection model. The format is in vivo, mice. The conditions noted are these: 10 mg/kg/day intraperitoneally, 20 days, FIG. 13. The method, then: Six- to eight-week-old male C57BL/6(H-2^b) and BALB/c(H-2^d) mice were purchased from the Animal Resource Center of the National Science Council of Taiwan (Taipei, Taiwan). All animal experiments were approved by the animal ethics committee of Mackay Memorial Hospital. Surgery for skin transplantation was performed with standardized procedures. In brief, a 2×1 cm full-thickness skin graft was harvested from the C57BL/6 donor mouse. A graft bed on the BALB/c recipient was prepared. The skin graft was sutured to the recipient's graft bed. Rejection was defined as necrosis of more than 80% of the epidermal surface of the graft. The tested agents included vehicle (as control), Mib-5 (10 mg/kg/day), Mib-7 (10 mg/kg/day) and rapamycin (1.5 mg/kg/day as positive control). Treatments were administered intraperitoneally daily for consecutive 20 days until rejection was observed.
The skin allo-transplantation model, by using C57BL/6(H-2^b) mice as donors and BALB/c(H-2^d) mice as recipients, was used to examine the effect of Mib-5 and Mib-7 on allograft survival, in which rapamycin served as a positive control.

Data set [3] has as its system macrophages. Description: Cell marker expression on macrophages (total), flow cytometry. It counts as cell-based, human. The following applies: for total expressed level of CD14: FIG. 3; for level of CD206: FIG. 5; for total level of CD80: compared with the control. How it is done:
as §1, §2, §3, §4
(§5) The expression of various types of cell markers, such as CD14, CD206, and CD80 expressed on the surface of macrophages, and CD1a, CD14, CD83, and HLA-DR expressed on the dendritic cells, were respectively detected by fluorescein isothiocyanate (FITC) and phycoerythrin (PE)-conjugated monoclonal antibodies in FACS caliber flowcytometer. Monoclonal antibodies used in this examples included anti-CD14 (IgG-FITC), anti-CD206 (IgG-FITC), anti-CD80-PE, anti-CD1a-PE, anti-CD83-PE and anti-human leukocyte antigen (HLA)-DR-PE. Results were analyzed by CellQuest software.

Data set [4] has as its system macrophages. Briefly: Phagocytosis assay with fluorescent latex beads. The format is cell-based, human. The conditions noted are these: M1 and/or M2 populations, FIG. 6. How it is done:
as §4
The phagocytic activity of macrophages was measured by using flow cytometric analysis. The green fluorescent latex beads (carboxylate-modified beads with diameter 2 μm) were suspended in PBS solution and added into macrophage culture for 2 hours with vortexa at 37° C. The macrophages were subjected to flow cytometry for measurement of fluorescent intensity

The subject of data set [5] is M2 macrophages. Description: Differentiation analysis, cell viability of M2 macrophages. It counts as cell-based, human. The following applies: for Cell viability of M2 macrophages: IL-4-induced M2 differentiation, 6 days, control 100%. The method, then:
M1 differentiation of freshly isolated CD14^+ cells was induced by the addition of lipopolysaccharide (LPS), while M2 differentiation of freshly isolated CD14^+ cells was induced by the addition of IL-4. Then, the present compounds (e.g., Mib-5, 6, 7, 8, 9, or 10) were added at the indicated dosages. 6 days later, the population of the differentiated macrophages were then determined by cell viability analysis. The cell viability was measured by cell counting kit-8 (CCK-8, Sigma). The half maximal inhibitory concentrations (IC50) of the test compounds on macrophages or dendritic cells were calculated.

Data set [6] concerns macrophages. Description: Morphology of macrophages (photographs, Liu's staining). It counts as cell-based, human. The following applies: for morphology and adhesion of treated macrophages: 10 μM, FIG. 1 panel B; for morphology of cells by Liu's staining compared with control cells: FIG. 1 panel C. The method, then: as §1, §2, §3, §4
Cells were transferred to a glass coverslide and covered with solution A (0.5 g of methylene blue and 1.7 g of Eosin yellow dissolved in 1,000 ml of ethanol). After 45 seconds, solution B (1.3 g of azure, 1.4 g of methylene blue, 23.38 g of Na2HPO4, 6.5 g of KH2PO4, dissolved in 1,000 ml of distilled water) was added in the proportion of 2 parts of B to 1 part of A. Mixed the solutions well by blowing the surface. The slide was left standing for 90 seconds and then washed off the staining solution rapidly by running water. The morphology of stained cells was then examined under microscope.

Data set [7] concerns M2 macrophages. Briefly: Cell marker expression on M2 macrophages, flow cytometry. The format is cell-based, human. The conditions noted are these: for CD14: M2 population after treatment: Table 5; for CD80: change in M2 population: Table 6; for CD206: change in M2: Table 7; for CD80 expression on M2 macrophages: control 47.64%; for CD14 expression on M2 macrophages: control 55.66%; for CD206 expression on M2 macrophages: control 74.49%. The method, then:
M1 differentiation of freshly isolated CD14^+ cells was induced by the addition of lipopolysaccharide (LPS), while M2 differentiation of freshly isolated CD14^+ cells was induced by the addition of IL-4. Then, the present compounds (e.g., Mib-5, 6, 7, 8, 9, or 10) were added at the indicated dosages. 6 days later, the population of the differentiated macrophages were then determined by cell viability analysis.
as §5

Structures are written as SMILES. “Also recorded” adds a separate entry of the source.

As to `COC1=CC(=O)[C@@]2(c3cc(=O)c4ccc(OC)cc4o3)[C@H](C[C@]3(C)[C@@H](C(=O)O)CC=C4[C@H]3CCCC4(C)C)C(C)=CC[C@H]2C1=O` [Mib-5], the “cell viability / cytotoxicity toward macrophages” value in data set [1] is listed as “did not adversely affect cell viability; also recorded: no significant cytotoxicity”. For the same compound, the “mean survival of skin allograft in recipient mice” value in data set [2] is given as “significantly prolonged”. In addition, in data set [3], the “total expressed level of CD14” value is “not affected”, the “level of CD206” value was “increase” and the “total level of CD80” value is given as “significantly reduced”. Further, in data set [4], the “phagocytic activity compared with control” value was “reduced”. Further, the “Cell viability of M2 macrophages” value in data set [5] is listed as 86.4%. Besides, in data set [5] (Table 4), the “change in M2 population of macrophages compared with control” value was “slight decrease”. In data set [6], the “morphology and adhesion of treated macrophages” value is “became rounded up, and were less adhesive”; the “morphology of cells by Liu's staining compared with control cells” value is “not significantly affected”. In data set [7], the “CD14: M2 population after treatment” value was “significant decrease”, the “CD80: change in M2 population” value is given as “increase”, the “CD206: change in M2” value was “increase” and the “CD80 expression on M2 macrophages” value was found to be 53.03%. In data set [7], the “CD14 expression on M2 macrophages” value worked out at 80.33% and the “CD206 expression on M2 macrophages” value is listed as 78.77%.

Regarding `COC1=CC(=O)[C@@]2(c3cc(=O)c4c(O)cc(O)cc4o3)[C@H](C[C@]3(C)[C@@H](C(=O)O)CC=C4[C@H]3CCCC4(C)C)C(C)=CC[C@H]2C1=O` [Mib-7], the “cell viability / cytotoxicity toward macrophages” value in data set [1] is “did not adversely affect cell viability; also recorded: no significant cytotoxicity”. Besides, the “mean survival of skin allograft in recipient mice” value in data set [2] is “significantly prolonged”. In addition, in data set [3], the “total expressed level of CD14” value was “not affected”, the “level of CD206” value is “increase” and the “total level of CD80” value was “significantly reduced”. In addition, the “phagocytic activity compared with control” value in data set [4] is reported as “reduced”. Also, the “Cell viability of M2 macrophages” value in data set [5] is reported as 136.4%. Besides, the “increase of M2 population” value in data set [5] (compared with control, Table 4) is on record as “about 40%”. In addition, in data set [6], the “morphology and adhesion of treated macrophages” value was “became rounded up, and were less adhesive”; the “morphology of cells by Liu's staining compared with control cells” value is reported as “not significantly affected”. In addition, in data set [7], the “CD14: M2 population after treatment” value is on record as “significant decrease”, the “CD80: change in M2 population” value was “increase”, the “CD206: change in M2” value was “increase” and the “CD80 expression on M2 macrophages” value is 49.58%. Further, in data set [7], the “CD14 expression on M2 macrophages” value worked out at 89.76% and the “CD206 expression on M2 macrophages” value came out at 88.88%.
